The text below walks through data of PMC10830420, “Structures, functions and adaptations of the human LINE-1 ORF2 protein” (Nature, 2023).

In general, pIC50 refers to the negative decadic logarithm of the IC50, by convention in mol/L.

pIC50: −log10 of the molar value.

For experiment [1], the target named is T1, ORF2p core (Homo sapiens, UniProt O00370).
T1 construct: His6-MBP-3C-ORF2p (238-1061, ORFeus-Hs) in pET41; His6-MBP (3C protease site) (N, cleaved yes); made in house; host or cells: E. coli
In words: Gel-based L1 RT assay, ORF2p core, inhibition by NRTI triphosphates. Conditions: 100 nM dNTP mixture. The experiment is classed as biochemical. How it is done: (§1) ORF2p core was preincubated with a template:primer containing a single site for the incorporation of a given nucleotide analogue. The primer/template sequence shown in the panel a illustrates the case of single incorporation of 3TC, with a single G for incorporation; the incoming template sequence for entecavir and carbovir has a single C, and for d4T a single A, each at position labeled “N”. Reactions were incubated for one minute at 37 °C with a 100 nM dNTP mixture and increasing concentrations of listed inhibitors. IC50 index, fold = IC50 (drug, µM) ÷ [dNTP] […] Fluorescein-labeled dNTPs (here, uracil-TP) are incorporated by ORF2p into a biotinylated primer, here shown against a poly(A) template. Detection is then achieved using FRET with a terbium cryptate labeled streptavidin, and the time-resolved technique and time-delayed emission from terbium cryptate reduces background from other fluorescent chemicals in the mix. In the presence of ORF2p RT inhibitors (RTIs), base incorporation is stopped and FRET signal is lost. […]
(§2) ORF2p reverse transcriptase activity assays […]
Gel-based RT activity assays consisted of pr e-incubating RTs with annealed DNA/RNA, DNA/DNA, or RNA/RNA 5’- end- radiolabeled or 5’-end-Cy5- o r FAM-labeled template:primer duplex or hybrid duplex and, where indicated, inhibitor in the presence of 0.1- 1 μ M dNTP or NTP mixture, 0.25 mM EDTA, 50 mM NaCl, and 25 mM Tris (pH 8) for 10 min at 37°C. Labeled nucleic acids were purchased from Dharmacon or IDT. Unless otherwise indicated, 15 μL reactions were initiated by the addition of 1.3 mM MgCl2, incubated for 10 min at 37 °C, and then stopped by the addition of 15 μL of formamide/EDTA (25 mM) mixture and incubated at 95 °C for 10 min. 3 μL reaction samples were subjected to denaturing 8 M urea 20% PAGE to resolve products followed by signal quantification (ImageQuant 5.2, GE Healthcare Bio- Sciences) through phosphorimaging (Amersham Typhoon 5, Cytivia). Scanned gel images are […]
minor products; original images are provided in an Extended Data file. […]

The target in experiment [2] is T1, ORF2p core. In words: Homogeneous time-resolved fluorescence (HTRF) ORF2p RT assay. The experiment is classed as biochemical. Conditions: HTRF; NRTI NTPs. How it is done:
as §1, §2
For HTRF RT assays157, 25 nM ORF2p core and 12. 5 nM t em plat e: primer was incubated at 25°C for 60 minutes
with 10 nM of fluorescein- 12- dUTP (Thermo), 1 µM each (dATP,dCTP,dGTP), and test compound in a 15 µL
reaction with buffer containing 50 mM Tris-HCl, 50 mM KCl, 10 mM MgCl2, 10 mM DTT, pH 8.1, and 1% final
(In general: In TR-FRET formats the signal depends on donor and acceptor labels being close together.)

Experiment [3] has as its target T2, Full-length ORF2p WT (FADD) (Homo sapiens, UniProt O00370).
T2 construct: gel-based RT assay of full-length ORF2p WT (FADD) or HIV-like (FMDD); His8 (C); HERV-K protease + TEV protease + TEV site (self-processed; leaves one Gly) (N, cleaved yes); made in house; host or cells: SF9 insect cells (MultiBac)
Description: Gel-based RT assay of full-length ORF2p WT (FADD). The experiment is classed as biochemical. Particulars: single-nucleotide-resolution RT assays. An excerpt:
(§3) Crystal structure of AZT triphosphate bound to HIV-1 RT (PDB 5I42) versus model of AZT triphosphate bound to L1 ORF2p. […] Left, HIV-1 RT in the NNRTI-unbound conformation (PDB 7LRI). Residues involved in NNRTI-resistance are highlighted; space occupied by HIV-1-bound nevirapine is shadowed (PDB 4PUO). Right, equivalent region in L1 ORF2p. The long α-helix corresponds to residues 572–588 in ORF2p. […] Data in a, b and e are representative of two independent experiments and shown as mean ± s.d. […]
(§4) server155 and manually checked with cutoff of 2.5-3.3 Å for polar interactions and 3.7 Å for van der Waals […]
(§5) ORF2p reverse transcriptase activity assays
(§6) Microwell assays were performed using the reverse transcriptase assay, colorimetric (Roche) according to the manufacturer’s instructions, with the supplied poly(A) template and oligo(dT) 15 primer. ORF2p fractions were diluted for assay in lysis/binding buffer (50 mM Tris, 80 mM potassium chloride, 2.5 mM DTT, 0.75 mM EDTA, and 0.5% Triton X- 100; pH 7.8) and incorporation of digoxigenin- and biotin- labeled dUTP into DNA was measured by absorbance at 405 nm as compared to a 490 nm reference. […] 3 μL reaction samples were subjected to denaturing 8 M urea 20% PAGE to resolve products followed by signal quantification (ImageQuant 5.2, GE Healthcare Bio- Sciences) through phosphorimaging (Amersham Typhoon 5, Cytivia). […]

For experiment [4], the target named is T3, A701M mutant full-length ORF2p (FMDD) (Homo sapiens, UniProt O00370, A701M).
T3 construct: His8 (C); HERV-K protease + TEV protease + TEV site (self-processed; leaves one Gly) (N, cleaved yes); made in house; host or cells: SF9 insect cells (MultiBac)
Description: Gel-based RT assay of full-length ORF2p A701M mutant (FMDD). The experiment is classed as biochemical.
Text: as §3, §4, §5, §6

The subject of experiment [5] is L1 retrotransposition reporter in HeLa cells. In words: LINE-1 dual luciferase retrotransposition assay in HeLa cells. Format: cell-based, human. Particulars: HeLa cells, stable dual luciferase L1 reporter, normalized to cell viability, n = 3 wells.

In the case of `Nc1ccn([C@@H]2CS[C@H](CO)O2)c(=O)n1` [3TC, lamivudine], the “IC50 index, fold = IC50 (drug, µM) ÷ [dNTP] (natural counterpart, 0.1 µM)” value on ORF2p core [1] amounted to 56 fold. Moreover, the pIC50 on ORF2p core [1] (NTP forms of NRTIs, one minute at 37 °C) is 5.15 to 5.30; on ORF2p core [2], 6.12 to 6.70; in experiment [5], 6.05; in experiment [5] (Homo sapiens, HeLa) it was 5.30 to 6.00. The “inhibition of full-length ORF2p compared with ORF2p core” value in experiment [3] is recorded as “similarly inhibited”. Moreover, the “fold more potent in inhibiting A701M mutant full-length ORF2p (FMDD) than wild type (FADD)” value in experiment [4] is given as “approximately 15 fold”.
